System: Hs578T complex spheroid growth, percent test/control
Assay: Anticancer human tumor Hs578T cell line growth inhibition [AhR];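 further: luminescent viability signal as a proxy for spheroid growth; spheroids exposed to agents for one week after three days of growth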
Conditions: for IC50: curve of first compound; for viability, T/C: stronger effect = lower value
How it was run: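 Complex tumor spheroids co-cultured with HUVEC and human MSC stroma; AhR antagonists tested in combination with standard-of-care and investigational agents. Top concentration at or near clinical Cmax (else 10 microM), half-log dilutions; growth expressed as percent test/control.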

[1] = second compound 0.1 µM, first compound 0.0316 µM
[2] = second compound 0.1 µM, first compound 0.1 µM
[3] = second compound 0.1 µM, first compound 0.316 µM
[4] = second compound 0.1 µM, first compound 1 µM
[5] = second compound 0.1 µM, first compound 3.16 µM
[6] = second compound 0.1 µM, first compound 10 µM
[7] = second compound 0.316 µM, first compound 0.0316 µM
[8] = second compound 0.316 µM, first compound 0.1 µM
[9] = second compound 0.316 µM, first compound 0.316 µM
[10] = second compound 0.316 µM, first compound 1 µM
[11] = second compound 0.316 µM, first compound 3.16 µM
[12] = second compound 0.316 µM, first compound 10 µM
[13] = second compound 1 µM, first compound 0.0316 µM
[14] = second compound 1 µM, first compound 0.1 µM
[15] = second compound 1 µM, first compound 0.316 µM
[16] = second compound 1 µM, first compound 1 µM
[17] = second compound 1 µM, first compound 3.16 µM
[18] = second compound 1 µM, first compound 10 µM
[19] = second compound 3.16 µM, first compound 0.0316 µM
[20] = second compound 3.16 µM, first compound 0.1 µM
[21] = second compound 3.16 µM, first compound 0.316 µM
[22] = second compound 3.16 µM, first compound 1 µM
[23] = second compound 3.16 µM, first compound 3.16 µM
[24] = second compound 3.16 µM, first compound 10 µM
[25] = second compound 10 µM, first compound 0.0316 µM
[26] = second compound 10 µM, first compound 0.1 µM
[27] = second compound 10 µM, first compound 0.316 µM
[28] = second compound 10 µM, first compound 1 µM
[29] = second compound 10 µM, first compound 3.16 µM
[30] = second compound 10 µM, first compound 10 µM

Compound | IC50 (second compound 0.1 µM) [µM] | IC50 (second compound 0.316 µM) [µM] | IC50 (second compound 1 µM) [µM] | IC50 (second compound 3.16 µM) [µM] | IC50 (second compound 10 µM) [µM] | viability, T/C [1] [%] | viability, T/C [2] [%] | viability, T/C [3] [%] | viability, T/C [4] [%] | viability, T/C [5] [%] | viability, T/C [6] [%] | viability, T/C [7] [%] | viability, T/C [8] [%] | viability, T/C [9] [%] | viability, T/C [10] [%] | viability, T/C [11] [%] | viability, T/C [12] [%] | viability, T/C [13] [%] | viability, T/C [14] [%] | viability, T/C [15] [%] | other results
COc1cc(Nc2ncc3c(n2)-c2ccc(Cl)cc2C(c2c(F)cccc2OC)=NC3)ccc1C(=O)O + Cc1cncc(-c2nc(NCCc3c[nH]c4ccccc34)c3ncn(C(C)C)c3n2)c1 | > 10 | > 10 | > 10 | > 10 | < 0.0316 | 91.4 | 94.7 | 99.6 | 101 | 85.6 | 65.1 | 93.5 | 93.2 | 107 | 90.5 | 88.2 | 66.9 | 98.5 | 81.7 | 104 | viability, T/C [16]: 99.2%; viability, T/C [17]: 86.7%; viability, T/C [18]: 62.5%; viability, T/C [19]: 55.6%; viability, T/C [20]: 62.4%; viability, T/C [21]: 70.1%; viability, T/C [22]: 59.4%; viability, T/C [23]: 61.1%; viability, T/C [24]: 53.3%; viability, T/C [25]: 6.12%; viability, T/C [26]: 5.86%; viability, T/C [27]: 6.53%; viability, T/C [28]: 6.24%; viability, T/C [29]: 8.49%; viability, T/C [30]: 12.8%
NS(=O)(=O)OCC1CC(n2ccc3c(NC4CCc5ccccc54)ncnc32)CC1O (stereo not given) + Cc1cncc(-c2nc(NCCc3c[nH]c4ccccc34)c3ncn(C(C)C)c3n2)c1 | 2.9 | 2.84 | 2.14 | 0.774 | < 0.0316 | 114 | 94.9 | 83.3 | 60.2 | 51 | 35.1 | 128 | 100 | 84.2 | 60.6 | 48.2 | 39.6 | 115 | 98.9 | 99.4 | viability, T/C [16]: 59.4%; viability, T/C [17]: 48.3%; viability, T/C [18]: 36.6%; viability, T/C [19]: 69.2%; viability, T/C [20]: 66%; viability, T/C [21]: 66.1%; viability, T/C [22]: 45.4%; viability, T/C [23]: 35.4%; viability, T/C [24]: 38.3%; viability, T/C [25]: 6.36%; viability, T/C [26]: 6.52%; viability, T/C [27]: 7.75%; viability, T/C [28]: 5.11%; viability, T/C [29]: 5.06%; viability, T/C [30]: 3.64%
O=C(C=Cc1cccc(S(=O)(=O)Nc2ccccc2)c1)NO + Cc1cncc(-c2nc(NCCc3c[nH]c4ccccc34)c3ncn(C(C)C)c3n2)c1 | 2.28 | 2.57 | 2.33 | 0.75 | < 0.0316 | 122 | 110 | 106 | 75.6 | 39.8 | 2.43 | 103 | 116 | 93.8 | 79.6 | 44 | 2.11 | 113 | 101 | 98.9 | viability, T/C [16]: 77.2%; viability, T/C [17]: 39.9%; viability, T/C [18]: 1.72%; viability, T/C [19]: 76.3%; viability, T/C [20]: 63.8%; viability, T/C [21]: 63.1%; viability, T/C [22]: 46.8%; viability, T/C [23]: 26.2%; viability, T/C [24]: 0.97%; viability, T/C [25]: 7.33%; viability, T/C [26]: 7.26%; viability, T/C [27]: 4.94%; viability, T/C [28]: 2.69%; viability, T/C [29]: 1.35%; viability, T/C [30]: 0.35%

— PubChem BioAssay AID1919010 (Molecular Pharmacology Branch, DTP, NCI, 2023)
